Results taken from ChEMBL document CHEMBL1143634, “Calculating virtual log P in the alkane/water system (log P(N)(alk)) and its derived parameters deltalog P(N)(oct-alk) and log D(pH)(alk)” (J Med Chem, 2005).

Assay: Lipophilicity determined as logarithm of the partition coefficient in the alkane/water system
Details: octanol/water

Row | SMILES | Log PNalk
1 | c1ccc(-c2ccncc2)cc1 | 1.58
2 | CSC | 0.98
3 | CNc1ccccc1 | 1.11
4 | Oc1ccccc1Br | 1.04
5 | [O-][n+]1cccc2ccccc21 | -2.05
6 | Cc1cc(C)cc(O)c1 | 0.32
7 | COc1ccccc1C(=O)O | 2.08
8 | [O-][n+]1ccc(-c2ccccc2)cc1 | -2.36
9 | Cc1ccc(C)c(O)c1 | 0.38
10 | [O-][n+]1ccc2ccccc2c1 | -2.51
11 | CSc1ccccc1 | 2.81
12 | N#Cc1ccccc1O | -1.85
13 | CCCCC(C)=O | 0.87
14 | CC(C1=C(CCN(C)C)Cc2ccccc21)c1ccccn1 (stereo not given) | 1.65
15 | O=C(O)c1cccc([N+](=O)[O-])c1 | -1.22
16 | Cc1ccc(O)c(C)c1 | 0.34
17 | CC(C)c1ccccc1O | 0.96
18 | Oc1cc(Cl)cc(Cl)c1 | 0.35
19 | [O-][S+](c1ccccc1)c1ccccc1 | 0.67
20 | CN(C)c1ccccc1 | 2.4
21 | CCCC(C)=O | 0.43
22 | Oc1ccc(C(F)(F)F)cc1 | -0.15
23 | Oc1cccc(F)c1 | -0.83
24 | CCCCCCCO [1-HEPTANOL] | 1.01
25 | CCCCCO [1-PENTANOL] | -0.4

Row | SMILES | Log PNalk
26 | COc1cccc(O)c1 [1-hydroxy-3-methoxybenzene] | -0.88
27 | Oc1c(Cl)cccc1Cl [2,6-DICHLOROPHENOL] | 1.31
28 | Oc1ccccc1Cl [2-CHLOROPHENOL] | 0.76
29 | Nc1ccccc1[N+](=O)[O-] [2-NITROANILINE] | 0.31
30 | Nc1cccc(Cl)c1 [3-CHLOROANILINE] | 0.71
31 | O=[N+]([O-])c1cccc(O)c1 [3-NITRO-PHENOL] | -1.23
32 | Nc1cccc([N+](=O)[O-])c1 [3-NITROANILINE] | -0.46
33 | Nc1ccc(Cl)cc1 [4-CHLOROANILINE] | 0.57
34 | N#Cc1ccc(O)cc1 [4-CYANOPHENOL] | -2.29
35 | O=S(=O)(c1ccccc1)c1ccccc1 [(PHENYLSULFONYL)BENZENE] | 1.45
36 | CC(=O)Nc1ccccc1 [ACETANILIDE] | -1.7
37 | COC(C)=O [ACETIC ACID METHYL ESTER] | -0.26
38 | CCCOC(C)=O [ACETIC ACID PROPYL ESTER] | 0.9
39 | CC(C)=O [ACETONE] | -0.91
40 | CC(=O)c1ccccc1 [ACETOPHENONE] | 1.14
41 | C[C@]12CCC(=O)C=C1CC[C@@H]1[C@@H]2[C@@H](O)C[C@]2(C=O)[C@@H](C(=O)CO)CC[C@@H]12 [ALDOSTERONE] | -2.7
42 | CC(N)Cc1ccccc1 (stereo not given) [AMPHETAMINE] | 0.73
43 | Nc1ccccc1 [ANILINE] | 0.03
44 | COc1ccccc1 [ANISOLE] | 2.15
45 | COc1ccc(CCN2CCC(Nc3nc4ccccc4n3Cc3ccc(F)cc3)CC2)cc1 [ASTEMIZOLE] | 0.95
46 | CN1CCC(=C2c3ccccc3CCc3cccnc32)CC1 [AZATADINE] | 1.82
47 | CCC1(CC)C(=O)NC(=O)NC1=O [BARBITAL] | -2.15
48 | O=Cc1ccccc1 [BENZALDEHYDE] | 1.12
49 | N#Cc1ccccc1 [BENZONITRILE] | 0.9
50 | OCc1ccccc1 [BENZYL ALCOHOL] | -0.62

Row | SMILES | Log PNalk
51 | NCc1ccccc1 [BENZYLAMINE] | -0.21
52 | Oc1ccc2ccccc2c1 [BETANAPHTHOL] | 0.3
53 | c1ccc(-c2ccccc2)cc1 [BIPHENYL] | 4
54 | Brc1ccccc1 [BROMOBENZENE] | 3.12
55 | CCC(C)=O [BUTANONE] | -0.25
56 | CCCCN [BUTYLAMINE] | -0.62
57 | O=C(O)CCl [CHLOROACETIC ACID] | -3.14
58 | Clc1ccccc1 [CHLOROBENZENE] | 2.99
59 | CN(C)CCC(c1ccc(Cl)cc1)c1ccccn1 (stereo not given) [CHLORPHENIRAMINE] | 2.09
60 | CN(C)CCCN1c2ccccc2Sc2ccc(Cl)cc21 [CHLORPROMAZINE] | 4.37
61 | Cc1ncc2c(c1O)COC2c1ccc(Cl)cc1 (stereo not given) [CICLETANINE] | -1.76
62 | C[C@]12C[C@H](O)[C@H]3[C@@H](CCC4=CC(=O)CC[C@@]43C)[C@@H]1CC[C@@H]2C(=O)CO [CORTICOSTERONE] | -1.62
63 | C[C@]12CCC(=O)C=C1CC[C@@H]1[C@@H]2CC[C@@]2(C)[C@H]1CC[C@]2(O)C(=O)CO [CORTODOXONE] | -1
64 | C[C@]12CC[C@H]3[C@@H](CCC4=CC(=O)CC[C@@]43C)[C@@H]1CC[C@@H]2C(=O)CO [DESOXYCORTICOSTERONE] | 0.48
65 | O=C([O-])Cc1ccccc1Nc1c(Cl)cccc1Cl.[Na+] [DICLOFENAC SODIUM] | 1.72
66 | COc1ccc([C@@H]2Sc3ccccc3N(CCN(C)C)C(=O)[C@@H]2OC(C)=O)cc1 [DILTIAZEM] | 1.37
67 | CN[C@@H](C)[C@H](O)c1ccccc1 [EPHEDRINE] | -0.77
68 | NC1=NCC2c3ccccc3Cc3ccccc3N12 (stereo not given) [EPINASTINE] | 1.76
69 | C[C@]12CC[C@@H]3c4ccc(O)cc4CC[C@H]3[C@@H]1CC[C@@H]2O [ESTRADIOL] | -0.2
70 | C[C@]12CC[C@@H]3c4ccc(O)cc4CC[C@H]3[C@@H]1C[C@@H](O)[C@@H]2O [ESTRIOL] | -0.64
71 | C[C@]12CC[C@@H]3c4ccc(O)cc4CC[C@H]3[C@@H]1CCC2=O [ESTRONE] | 0.48
72 | CCOC(C)=O [ETHYL ACETATE] | 0.29
73 | CCN [ETHYLAMINE] | -1.77
74 | CC1CCc2cc(F)cc3c(=O)c(C(=O)O)cn1c23 (stereo not given) [FLUMEQUINE] | -1.37
75 | Fc1ccccc1 [FLUOROBENZENE] | 2.46

Row | SMILES | Log PNalk
76 | CC(C(=O)O)c1ccc(-c2ccccc2)c(F)c1 (stereo not given) [FLURBIPROFEN] | 1.49
77 | COc1ccccc1O [GUAIACOL] | 0.36
78 | N=C(N)N/N=C/c1c(Cl)cccc1Cl [GUANABENZ] | -1.6
79 | O=C(CCCN1CCC(O)(c2ccc(Cl)cc2)CC1)c1ccc(F)cc1 [HALOPERIDOL] | 1.53
80 | CCCCCC(=O)O [HEXANOATE] | 0.24
81 | CN1C(=O)NC(=O)C(C)(C2=CCCCC2)C1=O (stereo not given) [HEXOBARBITAL] | -0.57
82 | OCCOCCN1CCN(C(c2ccccc2)c2ccc(Cl)cc2)CC1 (stereo not given) [HYDROXYZINE] | 1.25
83 | CC(C)Cc1ccc(C(C)C(=O)O)cc1 (stereo not given) [IBUPROFEN] | 2.08
84 | c1ccc2[nH]ccc2c1 [INDOLE] | 0.68
85 | COc1ccc2c(c1)c(CC(=O)O)c(C)n2C(=O)c1ccc(Cl)cc1 [INDOMETHACIN] | 0.98
86 | Ic1ccccc1 [IODOBENZENE] | 3.33
87 | CC(C)CO [ISOBUTANOL] | -0.98
88 | c1ccc2cnccc2c1 [ISOQUINOLINE] | 1.11
89 | CC(C(=O)O)c1cccc(C(=O)c2ccccc2)c1 (stereo not given) [KETOPROFEN] | 0
90 | COc1ccc(O)cc1 [MEQUINOL] | -1.03
91 | Cc1cccc(O)c1 [METACRESOL] | -0.35
92 | CN[C@@H](C)Cc1ccccc1 [METHAMPHETAMINE] | 1.24
93 | CO [METHYL ALCOHOL] | -2.8
94 | COC(=O)c1ccccc1 [METHYL BENZOATE] | 2.13
95 | CS(=O)(=O)c1ccccc1 [METHYLPHENYLSULFONE] | -0.87
96 | C[S+]([O-])c1ccccc1 (stereo not given) [METHYLPHENYLSULFOXIDE] | -1.52
97 | COCCc1ccc(OCC(O)CNC(C)C)cc1 (stereo not given) [METOPROLOL] | -0.38
98 | CN1CCC[C@H]1c1cccnc1 [NICOTINE] | 0.03
99 | O=[N+]([O-])c1ccc(/C=N/O)o1 [NIFUROXIME] | -1.1
100 | O=[N+]([O-])c1ccccc1 [NITROBENZENE] | 1.55

Row | SMILES | Log PNalk
101 | O=[N+]([O-])c1ccccc1O [NITROPHENOLATE] | 1.04
102 | Cc1ccccc1N [O-TOLYLAMINE] | 0.47
103 | Cc1ccccc1O [ORTHOCRESOL] | 0.25
104 | O=[N+]([O-])c1ccc(O)cc1 [P-NITROPHENOL] | -2.15
105 | COc1ccc(Cc2nccc3cc(OC)c(OC)cc23)cc1OC [PAPAVERINE] | 0.75
106 | O=C(O)c1ccc(O)cc1 [PARABEN] | -1.82
107 | Oc1ccc(Cl)cc1 [PARACHLOROPHENOL] | -0.12
108 | CC(C)(C)NC[C@H](O)COc1ccccc1C1CCCC1 [PENBUTOLOL] | 3.06
109 | CCCCC [PENTANE] | 4.18
110 | CCCC(C)C1(CC)C(=O)NC(=O)NC1=O (stereo not given) [PENTOBARBITAL] | -1.22
111 | Nc1ccc(/N=N/c2ccccc2)c(N)n1 [PHENAZOPYRIDINE] | 0.42
112 | CCC1(c2ccccc2)C(=O)NC(=O)NC1=O [PHENOBARBITAL] | -2.75
113 | Oc1ccccc1 [PHENOL] | -0.82
114 | O=C(O)Cc1ccccc1 [PHENYLACETIC ACID] | -1.6
115 | O=C1NC(=O)C(c2ccccc2)(c2ccccc2)N1 [PHENYTOIN] | -0.3
116 | CNC(=O)Oc1ccc2c(c1)[C@]1(C)CCN(C)[C@@H]1N2C [PHYSOSTIGMINE] | -0.46
117 | CC(=O)[C@H]1CC[C@H]2[C@@H]3CC=C4C[C@@H](O)CC[C@]4(C)[C@H]3CC[C@]12C [PREGNENOLONE] | 0.62
118 | CCN(CC)CCOC(=O)c1ccc(N)cc1 [PROCAINE] | -0.67
119 | CC(=O)[C@H]1CC[C@H]2[C@@H]3CCC4=CC(=O)CC[C@]4(C)[C@H]3CC[C@]12C [PROGESTERONE] | 1.23
120 | CCC(=O)O [PROPIONIC ACID] | -2.14
121 | COc1ccc(CN(CCN(C)C)c2ccccn2)cc1 [PYRILAMINE] | 2
122 | c1ccc2ncccc2c1 [QUINOLINE] | 1.26
123 | O=C(O)c1ccccc1O [SALICYLIC ACID] | -0.92
124 | C=CCC1(C(C)CCC)C(=O)NC(=O)NC1=O (stereo not given) [SECOBARBITAL] | -0.99
125 | Cc1ccc(Cc2cnc(NCCCCc3ncc(Br)cc3C)[nH]c2=O)cn1 [TEMELASTINE] | 1.28
